Assay results as given in the CheMixHub viscosity set.
Values joined by “and” are separate entries in the source; they are usually repeats but may differ in a detail not shown here. Equal entries are not always repeated. ± gives the uncertainty stated by the source.

Assay: xn = mol fraction of the nth substance listed

ClC=C(Cl)Cl + CC(C)CO
viscosity [mPa·s]
Conditions | 293.15 K | 303.15 K | 313.15 K
101.3 kPa, x1 = 0.1086 | – | 2.134 ± 0.027 | –
101.3 kPa, x1 = 0.2127 | – | 1.627 ± 0.021 | –
101.3 kPa, x1 = 0.3178 | – | 1.273 ± 0.017 | –
101.3 kPa, x1 = 0.4018 | – | 1.075 ± 0.014 | –
101.3 kPa, x1 = 0.5178 | – | 0.889 ± 0.012 | –
101.3 kPa, x1 = 0.6042 | – | 0.795 ± 0.011 | –
101.3 kPa, x1 = 0.7191 | – | 0.703 ± 0.01 | –
101.3 kPa, x1 = 0.8127 | – | 0.644 ± 0.009 | –
101.3 kPa, x1 = 0.9144 | – | 0.581 ± 0.008 | –
101.33 kPa, x2 = 0.15 | 0.8993 ± 0.016 | 0.7678 ± 0.014 | 0.6502 ± 0.012
101.33 kPa, x2 = 0.3 | 1.228 ± 0.022 | 1.005 ± 0.018 | 0.8284 ± 0.015
101.33 kPa, x2 = 0.45 | 1.556 ± 0.027 | 1.242 ± 0.022 | 1.007 ± 0.018
101.33 kPa, x2 = 0.6 | 1.884 ± 0.032 | 1.478 ± 0.026 | 1.185 ± 0.021
101.33 kPa, x2 = 0.75 | 2.213 ± 0.038 | 1.715 ± 0.029 | 1.365 ± 0.024
101.33 kPa, x2 = 0.9 | 2.541 ± 0.043 | 1.952 ± 0.033 | 1.542 ± 0.027

O=C1CCCC1 + CCCCN
303.15 K, 101.33 kPa
Conditions | viscosity [mPa·s]
x2 = 0.0957 | 1.45 ± 0.04
x2 = 0.2075 | 1.902 ± 0.052
x2 = 0.3126 | 2.204 ± 0.06
x2 = 0.4731 | 2.34 ± 0.064
x2 = 0.5364 | 2.252 ± 0.062
x2 = 0.6816 | 1.904 ± 0.052
x2 = 0.7758 | 1.552 ± 0.043
x2 = 0.8894 | 1.073 ± 0.03

[Cl-].[Na+] + O
Conditions | viscosity
293.15 K, 101.3 kPa, x1 = 0.02 | 1.079 ± 0.038 mPa·s
293.15 K, 101.3 kPa, x1 = 0.03479 | 1.188 ± 0.042 mPa·s
295.95 K, 100 kPa, x1 = 0.045 | 1.205 ± 0.0052 mPa·s
296.05 K, 100 kPa, x1 = 0.006 | 0.95 ± 0.08 mPa·s
296.17 K, 100 kPa, x1 = 0.06928 | 1.448 ± 0.0085 mPa·s
296.24 K, 100 kPa, x1 = 0.06928 | 1.444 ± 0.0085 mPa·s
296.26 K, 100 kPa, x1 = 0.06928 | 1.444 ± 0.0084 mPa·s
296.5 K, 100 kPa, x1 = 0.045 | 1.192 ± 0.0052 mPa·s
296.51 K, 100 kPa, x1 = 0.045 | 1.191 ± 0.0052 mPa·s
296.65 K, 100 kPa, x1 = 0.008493 | 0.958 ± 0.0081 mPa·s and 0.96 ± 0.0081 mPa·s
296.77 K, 100 kPa, x1 = 0.06928 | 1.427 ± 0.0082 mPa·s
297.15 K, 100 kPa, x1 = 0.01884 | 1.001 ± 0.025 mPa·s and 1.002 ± 0.025 mPa·s
298.15 K, 100 kPa, x1 = 0.04394 | 1.132 ± 0.009 mPa·s
298.15 K, 100 kPa, x1 = 0.05559 | 1.241 ± 0.01 mPa·s
298.15 K, 101.3 kPa, x1 = 0.001798 | 0.8994 ± 0.0085 mPa·s
298.15 K, 101.3 kPa, x1 = 0.005732 | 0.9164 ± 0.0086 mPa·s
298.15 K, 101.3 kPa, x1 = 0.009 | 0.9256 ± 0.032 mPa·s
298.15 K, 101.3 kPa, x1 = 0.01421 | 0.9571 ± 0.0089 mPa·s
298.15 K, 101.3 kPa, x1 = 0.02 | 0.9683 ± 0.034 mPa·s
298.15 K, 101.3 kPa, x1 = 0.02116 | 0.9928 ± 0.0092 mPa·s
298.15 K, 101.3 kPa, x1 = 0.03479 | 1.071 ± 0.037 mPa·s
298.15 K, 101.32 kPa, x1 = 0.09892 | 1.633 ± 0.16 mPa·s
298.65 K, 100 kPa, x1 = 0.07389 | 1.412 ± 0.011 mPa·s and 1.413 ± 0.011 mPa·s and 1.41 ± 0.011 mPa·s
300.65 K, 100 kPa, x1 = 0.08874 | 1.525 ± 0.012 mPa·s
301.01 K, 100 kPa, x1 = 0.09185 | 1.546 ± 0.011 mPa·s
301.02 K, 100 kPa, x1 = 0.09185 | 1.545 ± 0.011 mPa·s
301.09 K, 100 kPa, x1 = 0.06928 | 1.299 ± 0.0083 mPa·s
301.12 K, 100 kPa, x1 = 0.06928 | 1.298 ± 0.0083 mPa·s
301.15 K, 100 kPa, x1 = 0.008493 | 0.868 ± 0.007 mPa·s
301.25 K, 100 kPa, x1 = 0.01884 | 0.9164 ± 0.023 mPa·s and 0.9176 ± 0.023 mPa·s
301.59 K, 100 kPa, x1 = 0.045 | 1.071 ± 0.0054 mPa·s
301.67 K, 100 kPa, x1 = 0.045 | 1.067 ± 0.0054 mPa·s
301.68 K, 100 kPa, x1 = 0.045 | 1.069 ± 0.0049 mPa·s
301.71 K, 100 kPa, x1 = 0.09185 | 1.521 ± 0.011 mPa·s
301.87 K, 100 kPa, x1 = 0.06928 | 1.277 ± 0.0073 mPa·s
303.15 K, 100 kPa, x1 = 0.02582 | 0.92 ± 0.007 mPa·s
303.15 K, 101 kPa, x1 = 0.008924 | 0.8232 ± 0.019 mPa·s
303.15 K, 101 kPa, x1 = 0.01768 | 0.8649 ± 0.021 mPa·s
303.15 K, 101 kPa, x1 = 0.02626 | 0.911 ± 0.022 mPa·s
303.15 K, 101.3 kPa, x1 = 0.001 | 0.807 ± 0.017 mPa·s
303.15 K, 101.3 kPa, x1 = 0.009 | 0.8358 ± 0.029 mPa·s
303.15 K, 101.3 kPa, x1 = 0.02 | 0.8758 ± 0.031 mPa·s
303.15 K, 101.3 kPa, x1 = 0.03479 | 0.9703 ± 0.034 mPa·s
303.65 K, 100 kPa, x1 = 0.04394 | 1.016 ± 0.008 mPa·s and 1.019 ± 0.008 mPa·s
304.15 K, 100 kPa, x1 = 0.05559 | 1.096 ± 0.009 mPa·s and 1.095 ± 0.009 mPa·s
308.15 K, 100 kPa, x1 = 0.07389 | 1.166 ± 0.01 mPa·s
308.15 K, 101.3 kPa, x1 = 0.001798 | 0.7274 ± 0.0071 mPa·s
308.15 K, 101.3 kPa, x1 = 0.00359 | 0.7334 ± 0.0071 mPa·s
308.15 K, 101.3 kPa, x1 = 0.005732 | 0.7425 ± 0.0072 mPa·s
308.15 K, 101.3 kPa, x1 = 0.008927 | 0.7567 ± 0.0073 mPa·s
308.15 K, 101.3 kPa, x1 = 0.01421 | 0.7787 ± 0.0074 mPa·s
308.15 K, 101.3 kPa, x1 = 0.02116 | 0.81 ± 0.0076 mPa·s
308.65 K, 100 kPa, x1 = 0.07389 | 1.151 ± 0.01 mPa·s and 1.152 ± 0.01 mPa·s
308.66 K, 100 kPa, x1 = 0.06928 | 1.115 ± 0.0082 mPa·s and 1.116 ± 0.0081 mPa·s
308.68 K, 100 kPa, x1 = 0.06928 | 1.116 ± 0.0081 mPa·s
308.71 K, 100 kPa, x1 = 0.06928 | 1.113 ± 0.0083 mPa·s
308.73 K, 100 kPa, x1 = 0.06928 | 1.113 ± 0.0082 mPa·s
309.04 K, 100 kPa, x1 = 0.045 | 0.9262 ± 0.0039 mPa·s
309.11 K, 100 kPa, x1 = 0.045 | 0.926 ± 0.0043 mPa·s
309.26 K, 100 kPa, x1 = 0.045 | 0.9211 ± 0.0046 mPa·s
313.15 K, 100 kPa, x1 = 0.05559 | 0.926 ± 0.007 mPa·s and 0.924 ± 0.007 mPa·s
313.15 K, 101 kPa, x1 = 0.008924 | 0.6852 ± 0.016 mPa·s
313.15 K, 101 kPa, x1 = 0.01768 | 0.7209 ± 0.017 mPa·s
313.15 K, 101 kPa, x1 = 0.02626 | 0.759 ± 0.018 mPa·s
313.15 K, 101.3 kPa, x1 = 0.001 | 0.668 ± 0.014 mPa·s
313.15 K, 101.3 kPa, x1 = 0.009 | 0.6992 ± 0.025 mPa·s
313.15 K, 101.3 kPa, x1 = 0.02 | 0.7327 ± 0.026 mPa·s
313.15 K, 101.3 kPa, x1 = 0.03479 | 0.8126 ± 0.029 mPa·s
313.15 K, 101.32 kPa, x1 = 0.1014 | 1.281 ± 0.13 mPa·s
313.65 K, 100 kPa, x1 = 0.008493 | 0.679 ± 0.005 mPa·s
313.65 K, 100 kPa, x1 = 0.02582 | 0.751 ± 0.006 mPa·s and 0.75 ± 0.006 mPa·s and 0.748 ± 0.006 mPa·s
314.15 K, 100 kPa, x1 = 0.04394 | 0.834 ± 0.006 mPa·s
317.65 K, 100 kPa, x1 = 0.08874 | 1.092 ± 0.009 mPa·s and 1.096 ± 0.009 mPa·s
318.15 K, 100 kPa, x1 = 0.07389 | 0.974 ± 0.008 mPa·s and 0.97 ± 0.008 mPa·s and 0.973 ± 0.008 mPa·s
318.15 K, 101.3 kPa, x1 = 0.001798 | 0.6031 ± 0.006 mPa·s
318.15 K, 101.3 kPa, x1 = 0.00359 | 0.6082 ± 0.006 mPa·s
318.15 K, 101.3 kPa, x1 = 0.005732 | 0.6163 ± 0.0061 mPa·s
318.15 K, 101.3 kPa, x1 = 0.008927 | 0.6293 ± 0.0062 mPa·s
318.15 K, 101.3 kPa, x1 = 0.01421 | 0.6488 ± 0.0063 mPa·s
323.15 K, 101 kPa, x1 = 0.008924 | 0.5852 ± 0.014 mPa·s
323.15 K, 101 kPa, x1 = 0.01768 | 0.617 ± 0.015 mPa·s
323.15 K, 101 kPa, x1 = 0.02626 | 0.6491 ± 0.015 mPa·s
323.15 K, 101.3 kPa, x1 = 0.009 | 0.6002 ± 0.021 mPa·s
323.15 K, 101.3 kPa, x1 = 0.02 | 0.6302 ± 0.022 mPa·s
323.15 K, 101.3 kPa, x1 = 0.03479 | 0.6611 ± 0.023 mPa·s
